Measurements: patent publication US20030134901A1, “Lipoxin compounds and their use in treating cell proliferative disorders” (priority 1993, published 2003)

System: PMA-treated HL-60 cells
Test: Lipoxin metabolism / bio-half-life assay with phorbol ester-treated HL-60 cells
Format: in vitro ADME, human
Protocol: HL-60 cells were purchased from American Type Culture Collection (Rockville, Md.), and other cell culture reagents were from GIBCO (Grand Island, N.Y.). Versene (EDTA) was from Whittaker Bioproducts (Walkersville, Md.). Synthetic 11,12-acetylenic LXA4 methyl ester and LXs were from Cascade Biochemical (Reading, U.K.). 15(S)-15-m-PGE1, PGE1, and 5-HETE were from Cayman Chemical Co. (Ann Arbor, Mich.). [11,12-^3H]LXA4 was prepared from 11,12-acetylenic LXA4 using Lindlar catalyst as a custom tritiation (NET-259, lot 0 2793-275, New England Nuclear, Boston, Mass.). Tritiated products were isolated using RP-HPLC (Fiore et al. (1992) J. Biol. Chem. 267:16168; Serhan, C. N. (1990) Meth. Enzymol. 187:167). Methoxyamine and NAD were from Sigma Chemical Company (St. Louis, Mo.). Manganese dioxide and Adams reagent were from Aldrich Chemical Co. (Milwaukee, Wis.).
Human PMN were obtained from healthy volunteers by gradient centrifugation of heparinized fresh venous blood (Böyum, A. ([…]) Scand. J. Clin. Lab. Invest. 21:77). HL-60 cells were seeded in RPMI supplemented with penicillin (100 U/ml), streptomycin (100 μ/ml), fetal bovine serum (10%) (Hyclone, Logan, Utah) and incubated (37° C. with 5% CO2 atmosphere) in plastic 250 ml flasks. Individual flasks containing […] HL-60 cells/ml were incubated in the presence or absence of phorbol 12-myristate 13-acetate (PMA) (10 or 16 nM, 24-27 h) and adherence was monitored for induction of macrophage-like phenotype as in Collins, S. J. (1987) Blood 70:1233. […]
Incubations with eicosanoids were stopped with cold methanol containing either PGB2 or 5-HETE as internal standards (5-HETE was used when 15-oxo-ETE was quantified). […] Formation of 15-oxo-ETE by 100,000 g supernatants (cf. Agins, A. P. et al. (1987) Agents Actions 21:397; Xun, C-Q. et al.(1991) Biochem. J. 279:553; and Sok, D-E. et al. (1988) Biochem. Biophys. Res. Commun. 156:524) was quantified after RP-HPLC using an ODS column (4.6 mm×25 cm) eluted with methanol/H2O/acetic acid (70:30:0.01, v/v/v) monitored at 280 nm with a flow rate of 1 ml/min. […] On-line spectra were recorded using a diode array detector (Hewlett-Packard 1040M series II) equipped with HPLC^3D ChemStation software (DOS series). […]
The “bio-half-life” of compounds 1-8 was assessed using phorbol ester-treated human promyelocytic leukemia (HL-60) cells as described in Example 2. […]

CCCCC[C@H](O)/C=C/C=C\C=C\C=C\[C@@H](O)[C@@H](O)CCCC(=O)O [LXA4, (5S, 6R, 15S)-trihydroxy-7E, 9E, 11Z, 13E-eicosatetraenoic acid]
LXA4 metabolized (PMA-treated HL-60 cells, within the first 60 s of exposure): > 70% | LXA4 converted (within five minutes of addition to the cell incubation): more than 95%
